Test results as given in patent US9233905B2, “Oxidation and crystallization process for aromatic carboxylic acid production” (UOP LLC, priority 2012, dated 2016).

Test: solubility study in acetic acid and ionic liquid solvent
Assay type: physicochemical
Details: ionic liquid solvent compared with acetic acid; FIG. 4
Source text: Two samplers were used for different purposes. A custom Titanium sampler was fabricated by Parr Instrument with a 2 μm Titanium filter included to separate solid and liquid phase at operating temperature for studying reaction kinetics. A custom Titanium sampler, larger in size but with no filter attached, was used for a solubility study. For the solubility study, the solvent and solute were loaded in the reactor and heated to the desired temperature, and maintained for a certain time to ensure an equilibrium was established. Afterwards, sufficient time was allowed for the solid to settle before a sample was taken. Solubility was compared to another study that tested terephthalic acid solubility in acetic acid.

SMILES | solubility
O=Cc1ccc(C(=O)O)cc1 [4-CBA, 4-carboxybenzaldehyde] | greater solubility in ionic liquid than in acetic acid
O=C(O)c1ccc(C(=O)O)cc1 [terephthalic acid, 1,4-benzenedicarboxylic acid] | greater solubility in ionic liquid than in acetic acid
